{"source": "patent US20110301155A1", "about": "“INDAZOLE COMPOUNDS FOR ACTIVATING GLUCOKINASE” (priority 2007, published 2011)", "note": "Structures can show the parent of a compound that is named as a salt.", "data": [{"target": "T1, GK (recombinant glucokinase, residues 12-465 of the human enzyme) (Homo sapiens, UniProt P35557)", "T1 construct": "FLAG (C-terminal tag of vector pFLAG-CTC; only the vector is printed) (C); made in house; host or cells: Escherichia coli DH10b-T1r (pFLAG-CTC plasmid)", "T1 sequence (P35557 12-465)": "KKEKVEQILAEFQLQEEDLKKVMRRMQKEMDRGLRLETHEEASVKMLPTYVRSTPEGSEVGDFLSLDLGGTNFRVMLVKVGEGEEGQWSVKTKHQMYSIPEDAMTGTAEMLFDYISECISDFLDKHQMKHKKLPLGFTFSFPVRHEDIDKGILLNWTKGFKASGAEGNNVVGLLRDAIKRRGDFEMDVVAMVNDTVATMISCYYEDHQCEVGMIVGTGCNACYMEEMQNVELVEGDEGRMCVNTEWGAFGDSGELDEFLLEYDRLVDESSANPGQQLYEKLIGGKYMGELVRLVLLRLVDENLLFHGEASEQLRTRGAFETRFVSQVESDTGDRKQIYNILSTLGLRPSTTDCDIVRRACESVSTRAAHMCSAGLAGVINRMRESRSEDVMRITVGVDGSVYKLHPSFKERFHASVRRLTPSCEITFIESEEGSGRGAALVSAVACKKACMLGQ", "assay": "Determination of GK activity value (luminescence assay)", "format": "biochemical", "details": "calculated maximal gain in GK enzyme activity at saturating compound concentration; 5 mM glucose, 5 μM ATP", "description": "DNA encoding residues 12-465 of the full-length sequence of the human enzyme may be amplified by PCR and cloned into the HindIII and EcoRI sites of pFLAG-CTC (Sigma). SEQ.I.D. No. 1 corresponds to residues 12-465 of glucokinase.\nThe expression of recombinant glucokinase protein may be carried out by transformation and growth of DH10b-T1r E. coli cells incorporating the (pFLAG-CTC) plasmid in LB media. Protein expression can be induced in this system by the addition of IPTG to the culture medium.\nRecombinant protein may be isolated from cellular extracts by passage over Sepharose Q Fast Flow resin (Pharmacia). This partially purified GK extract may then be further purified by a second passage over Poros HQ10 (Applied Biosystems). The purity of GK may be determined on denaturing SDS-PAGE gel. Purified GK may then be concentrated to a final concentration of 20.0 mg/ml. After flash freezing in liquid nitrogen, the proteins can be stored at −78° C. in a buffer containing 25 mM TRIS-HCl pH 7.6, 50 mM NaCl, and 0.5 mM TCEP.\nThe activation properties of compounds for GK may be determined using a black 384-well-plate format under the following reaction conditions: 25 mM Hepes pH 7.2, 25 mM NaCl, 10 mM MgCl2, 0.01% Brij35, 1 mM DTT, 5 μM ATP, 5 mM Glucose 2% DMSO. The amount of ATP consumed may be determined quantitatively by addition of equal volume of luciferase reagent (luciferase+beetle luciferin—KinaseGlo Luminescent Kinase Assay kit from Promega). The luminescence intensity may be measured by using the Analyst HT from LJL Biosystems.\nThe assay reaction may be initiated as follows: 4 μl of substrate mixture (12.5 μM ATP and 12.5 mM Glucose) was added to each well of the plate, followed by the addition of 2 μl of activator (2 fold serial dilutions for 11 data points for each activator) containing 10% DMSO. 4 μL of 1.25 nM GK solution obtained in Reference Example 3A may be added to initiate the reaction. The reaction mixture may then be incubated at room temperature for 60 min, and quenched and developed by addition of 10 μL of luciferase reagent. Luminescence intensities of the resulting reaction mixtures may be measured after a 10 min incubation at room temperature. The luminescence intensity may be measured by using the Analyst HT from LJL Biosystems.\n% ACTmax values may be calculated by non-linear curve fitting of the compound concentrations and luminescence intensities to a standard inhibition/activation equation. % ACTmax represents the calculated maximal gain in GK enzyme activity at a saturating concentration of the compound. % ACTmax values for select compounds of the present invention are given in Table 2.", "units": {"% ACTmax": "%"}, "values": [{"smiles": "CC(C)Oc1cc(Oc2ccc(S(C)(=O)=O)cc2)c2[nH]nc(Nc3ccn(C)n3)c2c1", "note": "[Example 133, 5-isopropoxy-N-(1-methyl-1H-pyrazol-3-yl)-7-(4-(methylsulfonyl)phenoxy)-1H-indazol-3-amine]", "% ACTmax": 146.3}, {"smiles": "Cn1ccc(Nc2nn(C)c3c(Oc4ccc(S(C)(=O)=O)cc4)cc(-c4ncccc4Cl)cc23)n1", "note": "[Example 134, 5-(3-chloropyridin-2-yl)-1-methyl-N-(1-methyl-1H-pyrazol-3-yl)-7-(4-(methylsulfonyl)phenoxy)-1H-indazol-3-amine]", "% ACTmax": 24.1}, {"smiles": "CC(C)S(=O)(=O)c1cc(Oc2ccc(S(C)(=O)=O)cc2)c2[nH]nc(Nc3ccn(C)n3)c2c1", "note": "[Example 136, 5-(isopropylsulfonyl)-N-(1-methyl-1H-pyrazol-3-yl)-7-(4-(methylsulfonyl)phenoxy)-1H-indazol-3-amine trifluoroacetic acid salt]", "% ACTmax": 110.9}, {"smiles": "COCC(O)Cn1ccc(Nc2n[nH]c3c(Oc4ccc(S(C)(=O)=O)cc4)cc(-c4ncccc4Cl)cc23)n1", "note": "(stereo not shown) [Example 140, 1-(3-(5-(3-chloropyridin-2-yl)-7-(4-(methylsulfonyl)phenoxy)-1H-indazol-3-ylamino)-1H-pyrazol-1-yl)-3-methoxypropan-2-ol]", "% ACTmax": 146.5}]}]}
